Results published in paper PMC6430730, “A short peptide potentially promotes the healing of skin wound” (Bioscience Reports, 2019).
Where a SMILES comes first, the peptide text is derived from it.

Key:
[1] = test system: E. coli (ATCC 25922); test: Antimicrobial activity assay (agar hole diffusion); type: cell-based, Escherichia coli; parameters: key: +: Possessing antimicrobial activity; -: Possessing no antimicrobial activity; details: Amp (1 mg/ml), 7 μl in agar hole, 16–18 h, 37°C
Protocol: (§1) The antimicrobial activity of OA-GL12 was performed based on our previous research. Briefly, fungal strain Candida albicans (ATCC 14053), Gram-positive bacterial strains Staphylococcus epidermidis (ATCC 12228), Staphylococcus haemolyticus (ATCC 29970), and Bacillus subtilis (ATCC 19659), Gram-negative bacterial strains Escherichia coli (ATCC 25922) were obtained from the Kunming Medical University. The microbes were cultivated in LB broth to OD600 = 0.8. A 10-μl aliquot of the bacteria was collected and added to fresh LB (10 ml) broth with 1% Type I agar (Sigma–Aldrich, St. Louis, MO, U.S.A.), and then poured into a 90-mm Petri dish. A micro hole was made after the agar was solidified, and a 7-μl aliquot of OA-GL12 (1 mM) was added to the hole. Petri dish was placed for 16–18 h at 37°C. As the symbol of antimicrobial activity, a clear zone appeared on the surface of the agar just like ampicillin (1 mg/ml), positive control, which represented the antimicrobial ability of OA-GL12.

[2] = test system: S. haemolyticus (ATCC 29970); test: Antimicrobial activity assay (agar hole diffusion); type: cell-based, Staphylococcus haemolyticus; parameters: key: +: Possessing antimicrobial activity; -: Possessing no antimicrobial activity; details: Amp (1 mg/ml), 7 μl in agar hole, 16–18 h, 37°C
Protocol: as §1

[3] = test system: B. subtilis (ATCC 19659); test: Antimicrobial activity assay (agar hole diffusion); type: cell-based, Bacillus subtilis; parameters: key: +: Possessing antimicrobial activity; -: Possessing no antimicrobial activity; details: Amp (1 mg/ml), 7 μl in agar hole, 16–18 h, 37°C
Protocol: as §1

[4] = test system: S. epidermidis (ATCC 12228); test: Antimicrobial activity assay (agar hole diffusion); type: cell-based, Staphylococcus epidermidis; parameters: key: +: Possessing antimicrobial activity; -: Possessing no antimicrobial activity; details: Amp (1 mg/ml), 7 μl in agar hole, 16–18 h, 37°C
Protocol: as §1

[5] = test system: C. albicans (ATCC 14053); test: Antimicrobial activity assay (agar hole diffusion); type: cell-based, Candida albicans; parameters: key: +: Possessing antimicrobial activity; -: Possessing no antimicrobial activity; details: Amp (1 mg/ml), 7 μl in agar hole, 16–18 h, 37°C
Protocol: as §1

[6] = test system: full-thickness skin wound mice; details: in vivo
Protocol: Adult male mice (22–25 g) from the same generation were purchased from Hunan SJA Laboratory Animal Co., Ltd (Certificate number 43004700043639, China). […] Mice were made full-thickness skin wound models after 7 days’ acclimation. Briefly, mice were anesthetized by intraperitoneal injection (i.p.) with 1% sodium pentobarbital (0.1 ml/20 g body weight). Dorsal hair were shaved by an electric clipper and sterilized with 75% alcohol. Two full-thickness skin wounds (8 × 8 mm) were surgically made on the back. After the surgery, the mice were placed in comfortable cages until they recovered from anesthesia. Nine mice were randomly divided into three groups. […] The left-sided wounds of the two groups were treated with the same volume of normal saline as vehicle, and the last group treated with 1 mg/ml KangFuXin (KFX, the ethanol extract of the American cockroach, Inner Mongolia Jingxin Pharmaceutical Co. Ltd, China, Z15020805) as positive control. Wounds were treated twice daily with samples and photographed at intervals of 2 days.
The condition of wounds was documented; then ImageJ software was used to estimate the wound areas (percentage of residual wound area to initial areas). […]

[7] = test system: human erythrocytes; test: Hemolytic activity assay; type: cell-based
Protocol: Hemolytic activity assay was performed according to previous research. Briefly, erythrocytes were triply and softly washed with 0.9% normal saline. Then cells were incubated with various concentrations of OA-GL12 for 30 min (37°C), while 0.1% Triton X-100 as maximum hemolysis. The absorbance of supernatant was read at 540 nm after centrifugation with 3000×g for 4 min at room temperature. The numeric data of hemolytic activity (%) was calculated by [(Asample) × 100]/Atriton x-100.

[8] = test system: mice; test: Acute toxicity assay; type: in vivo; details: for Mortality (%): 3 male and 3 female mice, observed 2 weeks
Protocol: Two phases of acute toxicity were performed as previous study. Lethal concentration of OA-GL12 was tested at 5, 10, 25, and 50 μmol/kg by i.p. in mice, while using saline as negative control. The mortalities, toxic effects, and behavioral changes were observed and recorded for 2 weeks.

[9] = test system: HSF cells; test: Cellular wound healing (scratch) assay, HSF; type: cell-based, human; details: MMC 10 µg/ml alone, 24 h; vehicle 38.96 ± 3.34%; mean ± S.D., n=9
Protocol: (§2) Cellular wound healing activity assay was performed as previous research. Briefly, human keratinocytes (HaCaT) (KCB 200442YJ) and human skin fibroblasts (HSF) (KCB 200537) were provided by Conservation Genetics CAS Kunming Cell Bank of Kunming Institute of Zoology, the Chinese Academy of Sciences, and cultured in Dulbecco’s modified Eagle’s medium (DMEM, BI, Israel) with 10% FBS (BI, Israel) and penicillin (100 units/ml)–streptomycin (100 units/ml) in a humidified atmosphere of 5% CO2 (37°C). The possible mycoplasma contamination was excluded by the EZ-PCR mycoplasma contamination detection kit (20-700-20, BI). Cell monolayer formation was formed by culturing the HaCaT and HSF (2.5 × 10^5 cells/well) cells in 24-well plates for 12–24 h with serum starvation and then made to the mechanical scratch wound by a sterile pipette tip (Axygen, U.S.A.). After washing with PBS twice to detach dead cells, cells monolayer was then cultured for next periods (from 0 to 24 h) in a serum-free basal medium (500 μl) with the continued presence of OA-GL12. The same volume of DMEM without OA-GL12 was made as vehicle. […] Cell migration activity was expressed as the percentage of the gap relative to the full area of the scratch using ImageJ software (National Institutes of Health, Bethesda, MD, U.S.A.) to evaluate the repair rate of scarification.

[10] = test system: HaCaT cells; test: Cellular wound healing (scratch) assay, HaCaT; type: cell-based, human; details: MMC 10 µg/ml alone, 24 h; vehicle 53.39 ± 10.11%; mean ± S.D., n=9
Protocol: as §2

[11] = DPPH free radical scavenging; type: physicochemical; details: 30 min, room temperature, A517
Protocol: 2,2′-azino-bis (3-ethylbenzothiazoline-6-sulphonic acid) (ABTS) and 2,2-diphenyl-1-picrythydrazyl (DPPH)) scavenging activities of OA-GL12 were assessed referring to previous studies. Briefly, a stock solution of ABTS radical was prepared by incubating 2.8 mM potassium persulphate (Sigma–Aldrich, St. Louis, MO, U.S.A.) with 7 mM ABTS in water for no less than 6 h in the dark, and used immediately. The stock solution was diluted 50-fold with double distilled water. Dissolved samples with ultrapure water were added to the diluted stock solution, while the same volume of solvent was used as the blank, and Vitamin C as the positive control. The reaction was in the dark for 30 min. […] Meanwhile, the assay mixture contained 190 μl of 5 × 10^−5 M DPPH radical (Sigma–Aldrich, St. Louis, MO, U.S.A.) dissolved in ethanol and 10 μl of sample solution. The mixture was then incubated in a 96-well microtiter plates at room temperature for 30 min. Subsequently, the absorbance was measured at 517 nm. The free radical scavenging activity (%) was calculated by (Ablank − Asample) × 100/Ablank.

[12] = test system: HaCaT cells; test: Cytotoxicity of Gefitinib on HaCaT cells; type: cell-based, human; details: Gefitinib 1 μM, 24 h; data not shown

Compound: CC1(C)S[C@@H]2[C@H](NC(=O)[C@H](N)c3ccccc3)C(=O)N2[C@H]1C(=O)O [Amp, ampicillin]
- Antimicrobial activity [1]: +
- Antimicrobial activity [2]: +
- Antimicrobial activity [3]: +
- Antimicrobial activity [4]: +
- Antimicrobial activity [5]: +

Compound: CC[C@H](C)[C@H](NC(=O)CNC(=O)[C@H](CO)NC(=O)[C@H](CC(C)C)NC(=O)[C@H](CC(C)C)NC(=O)CN)C(=O)N[C@@H](CC(N)=O)C(=O)N[C@@H](C)C(=O)N[C@@H](CCC(=O)O)C(=O)N[C@@H](Cc1c[nH]c2ccccc12)C(=O)N1CCC[C@H]1C(=O)N[C@@H](CS)C(=O)O [OA-GL12] (H-GLLSGINAEWPC-OH)
- adverse effects on mouse body weight, general health, or behavior [6]: No adverse effects
- hemolytic activity on human erythrocytes in vitro [7]: negligible hemolytic activity
- Mortality (%) ([8]; 5 μmol/kg i.p.): 0%
- Mortality (%) ([8]; 10 μmol/kg i.p.): 0%
- Mortality (%) ([8]; 25 μmol/kg i.p.): 0%
- Mortality (%) ([8]; 50 μmol/kg i.p.): 0%
- death and abnormal behaviors (tremor, retardation, irritability, piloerection, stiffness of tail) ([8]; i.p. injection, 2 weeks): no death and other abnormal behaviors

Compound: CO[C@@]12[C@H](COC(N)=O)C3=C(C(=O)C(C)=C(N)C3=O)N1C[C@@H]1N[C@@H]12 [MMC, mitomycin C]
- scratch healing of HSF cells [9]: 22.78 ± 5.22%
- healing rate of HaCaT cell scratch [10]: 26.66 ± 4.64%

Compound: O=C1O[C@H]([C@@H](O)CO)C(O)=C1O [Vitamin C]
- DPPH scavenging activity ([11]; 0.063 μM): nearly inactive
- DPPH scavenging ([11]; 1 μM, mean ± S.D., n=3): 7.71 ± 0.56%

Compound: Triton X-100
- Hemolytic ratio (%) ([7]; 0.1% Triton X-100 as maximum hemolysis, 30 min, 37°C, A540): 100%

Compound: COc1cc2ncnc(Nc3ccc(F)c(Cl)c3)c2cc1OCCCN1CCOCC1 [Gefitinib]
- cytotoxicity on HaCaT cells [12]: no obvious cytotoxicity
